Each structure is given as a SMILES string.

Test in all cases: KINOMEscan competition binding
Common to all, as to settings: compound 10.0 µM

Assay [1] concerns ABL1 (human), P00519 [H396P].
Assay [2] deals with RET (human), P07949 [M918T].
The test system of assay [3] is KIT (human), P10721 [L576P].
For assay [4], the system named is KIT (human), P10721 [V559D/V654A].
The test system of assay [5] is EGFR (human), P00533 [T790M/L858R].
In assay [6] the test system is ABL1 (human), P00519 [Y253F].
The subject of assay [7] is EGFR (human), P00533 [747-751 del / S ins].
Assay [8] has as its system EGFR (human), P00533 [752-759 del].
The subject of assay [9] is FLT3 (human), P36888 [D835H].
The test system of assay [10] is RET (human), P07949 [V804M].
Chain of RET (human), P07949 [V804M] (P07949 whole entry V804M, looked up): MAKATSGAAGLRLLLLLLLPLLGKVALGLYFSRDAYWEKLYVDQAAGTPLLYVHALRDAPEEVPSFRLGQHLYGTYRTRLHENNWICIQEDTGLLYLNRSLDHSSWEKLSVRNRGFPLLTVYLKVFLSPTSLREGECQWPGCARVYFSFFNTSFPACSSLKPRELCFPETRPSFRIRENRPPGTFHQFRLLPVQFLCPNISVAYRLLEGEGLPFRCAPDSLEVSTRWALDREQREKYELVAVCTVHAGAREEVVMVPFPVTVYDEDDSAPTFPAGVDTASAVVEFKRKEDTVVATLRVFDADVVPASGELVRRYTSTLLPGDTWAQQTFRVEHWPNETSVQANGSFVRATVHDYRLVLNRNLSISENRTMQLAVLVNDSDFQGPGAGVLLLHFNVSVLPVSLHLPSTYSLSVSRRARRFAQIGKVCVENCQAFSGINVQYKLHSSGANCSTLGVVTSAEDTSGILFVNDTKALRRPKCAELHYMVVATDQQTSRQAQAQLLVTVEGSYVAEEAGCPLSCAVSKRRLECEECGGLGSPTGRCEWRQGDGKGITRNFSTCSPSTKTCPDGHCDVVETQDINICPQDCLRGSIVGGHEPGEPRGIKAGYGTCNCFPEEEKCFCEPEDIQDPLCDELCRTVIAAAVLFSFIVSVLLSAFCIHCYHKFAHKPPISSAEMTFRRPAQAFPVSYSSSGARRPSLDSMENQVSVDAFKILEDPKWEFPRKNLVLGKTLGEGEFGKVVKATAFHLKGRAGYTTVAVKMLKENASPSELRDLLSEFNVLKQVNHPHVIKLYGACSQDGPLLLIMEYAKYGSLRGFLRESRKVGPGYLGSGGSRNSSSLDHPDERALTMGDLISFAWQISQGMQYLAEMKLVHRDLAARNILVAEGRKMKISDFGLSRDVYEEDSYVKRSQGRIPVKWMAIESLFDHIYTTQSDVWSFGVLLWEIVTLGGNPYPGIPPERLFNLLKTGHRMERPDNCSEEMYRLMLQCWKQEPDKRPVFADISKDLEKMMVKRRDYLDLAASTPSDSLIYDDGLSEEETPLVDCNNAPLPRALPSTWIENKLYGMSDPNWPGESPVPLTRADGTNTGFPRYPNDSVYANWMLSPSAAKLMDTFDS
Assay [11] concerns MET (human), P08581 [Y1235D].
Assay [12] concerns EGFR (human), P00533 [T790M].
The subject of assay [13] is FLT3 (human), P36888 [R834Q].

Chain of RET (human), P07949 [M918T] (P07949 whole entry M918T, looked up): as the sequence (P07949 whole entry V804M, looked up) above, with M804V, M918T counted along it
Chain of KIT (human), P10721 [L576P] (P10721 whole entry L576P, looked up): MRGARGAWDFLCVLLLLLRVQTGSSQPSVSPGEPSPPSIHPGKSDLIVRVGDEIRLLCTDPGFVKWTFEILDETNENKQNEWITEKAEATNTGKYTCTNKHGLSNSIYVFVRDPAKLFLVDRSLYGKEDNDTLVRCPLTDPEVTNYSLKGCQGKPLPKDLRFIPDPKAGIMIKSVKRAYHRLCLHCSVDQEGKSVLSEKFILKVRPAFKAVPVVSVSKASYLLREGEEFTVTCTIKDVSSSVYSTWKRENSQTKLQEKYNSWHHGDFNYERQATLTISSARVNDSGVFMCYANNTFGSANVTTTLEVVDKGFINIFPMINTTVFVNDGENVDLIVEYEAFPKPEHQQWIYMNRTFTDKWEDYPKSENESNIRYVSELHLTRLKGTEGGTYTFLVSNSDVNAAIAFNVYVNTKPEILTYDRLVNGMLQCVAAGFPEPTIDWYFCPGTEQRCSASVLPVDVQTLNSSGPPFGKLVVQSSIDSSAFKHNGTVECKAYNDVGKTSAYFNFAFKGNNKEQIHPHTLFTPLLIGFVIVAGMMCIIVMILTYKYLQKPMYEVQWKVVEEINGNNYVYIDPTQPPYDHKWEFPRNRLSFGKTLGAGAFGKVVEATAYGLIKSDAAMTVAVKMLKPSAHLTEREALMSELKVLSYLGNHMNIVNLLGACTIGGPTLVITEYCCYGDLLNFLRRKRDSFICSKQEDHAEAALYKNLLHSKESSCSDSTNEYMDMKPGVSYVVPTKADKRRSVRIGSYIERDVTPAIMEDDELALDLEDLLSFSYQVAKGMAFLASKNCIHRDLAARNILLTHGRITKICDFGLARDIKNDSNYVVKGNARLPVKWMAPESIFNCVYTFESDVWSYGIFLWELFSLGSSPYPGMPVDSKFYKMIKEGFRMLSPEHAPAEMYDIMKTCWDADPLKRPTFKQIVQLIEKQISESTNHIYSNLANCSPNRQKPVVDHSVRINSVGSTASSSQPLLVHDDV
Chain of KIT (human), P10721 [V559D/V654A] (P10721 whole entry V559D/V654A, looked up): as the sequence (P10721 whole entry L576P, looked up) above, with V559D, P576L, V654A counted along it

As to `Cn1c(=O)n(-c2ccc(C(C)(C)C#N)cc2)c2c3cc(-c4cnc5ccccc5c4)ccc3ncc21`, the kinase still bound, per cent of control in assay [1], in assay [2], in assay [3], in [4], in assay [5] and in [6] was 100% throughout. The kinase still bound, per cent of control in assay [7] was 100%; in assay [8], 100%; in assay [9], 21%; in [10], 100%.
Turning to `OCCCNc1cc(-c2ccnc(Nc3cccc(Cl)c3)n2)ccn1`, the kinase still bound, per cent of control in assay [1], in [2], in [3], in assay [11], in assay [4] and in [5] was 100% in each case. The kinase still bound, per cent of control in assay [6], in assay [7], in [8], in [9] and in assay [10] was 100% each time.
As for `C=CC(=O)Nc1cccc(Oc2nc(Nc3ccc(N4CCN(C)CC4)cc3OC)ncc2Cl)c1`, the kinase still bound, per cent of control was 100% in assay [1]; 100% in [2]; 100% in assay [4]; 100% in assay [6]; 0% in assay [7]; 0.25% in [8]. Further, the kinase still bound, per cent of control in assay [9] came to 4%; in assay [10] it was 100%.
On to `COc1cc(C(=O)NC2CCN(C)CC2)ccc1Nc1ncc2c(n1)N(C1CCCC1)C(C)CC(=O)N2C` (configuration not stated), for which the kinase still bound, per cent of control in assay [1], in assay [2], in assay [4], in assay [6], in [7] and in assay [8] was 100% throughout. For the same compound, the kinase still bound, per cent of control in [9] and in assay [10] was 100% throughout.
For the compound `COc1cc(C(=O)NC2CCN(C)CC2)ccc1Nc1ncc2c(n1)N(C1CCCC1)CCC(=O)N2C(C)C`, the kinase still bound, per cent of control in assay [1] turned out to be 100%; in [2], 0%; in assay [3], 100%; in assay [11], 100%; in assay [4], 100%; in assay [5], 100%. For the same compound, the kinase still bound, per cent of control in assay [6], in assay [7], in assay [8], in [9] and in assay [10] was 100% throughout.
For the compound `CC[C@@H]1C(=O)N(C)c2cnc(Nc3ccc(C(=O)NC4CCN(C)CC4)cc3OC)nc2N1C1CCCC1`, the kinase still bound, per cent of control in assay [1], in [2], in assay [4], in assay [6], in assay [9] and in assay [10] was 100% each time.
On to `Cc1ccc(C(=O)Nc2cccc(C(F)(F)F)c2)cc1Nc1cncc(C(N)=O)c1`, for which the kinase still bound, per cent of control in assay [1] came to 100%; in assay [2], 100%; in assay [4], 18%; in assay [6], 100%; in [7], 100%; in [8] it was 100%. The kinase still bound, per cent of control in assay [9] and in [10] was 100% each time.
With `CCc1nc(-c2cccc(C)c2)c(-c2ccnc(NC(=O)c3ccccc3)c2)s1`, the kinase still bound, per cent of control in [1] worked out at 3%; in assay [2] it was 72%; in assay [3], 51%; in assay [6] it was 26%; in assay [10], 94%.
As to `COc1cc(N2CCC(C(N)=O)CC2)ccc1Nc1nc(N)c(Cl)c(Nc2ccccc2S(=O)(=O)C(C)C)n1`, the kinase still bound, per cent of control is 100% in [1]; 100% in assay [2]; 100% in [4]; 100% in assay [6]; 0.75% in [7]; 1.2% in assay [8]. In addition, the results for the kinase still bound, per cent of control in [9] and in assay [10] were 11% and 100%, respectively.
Regarding `COc1ccc(N(C(=O)Oc2cc(C(=O)Nc3cccc(C(F)(F)F)c3)ccc2C)c2ccnc(Nc3ccc(N4CCN(C)CC4)cc3)n2)c(OC)c1`, the kinase still bound, per cent of control came out at 3.6% in assay [1]; 0.3% in assay [2]; 9% in assay [4]; 1.3% in assay [6]; 0.4% in [7]; 0.9% in assay [8]. Further, in assay [9], the kinase still bound, per cent of control was determined as 100%.
As to `COc1cc(C)c(Sc2cnc(NC(=O)c3ccc(CNC(C)C(C)C)cc3)s2)cc1C(=O)N1CCN(C(C)=O)CC1` (configuration not stated), the kinase still bound, per cent of control is 100% in assay [1]; 32% in assay [2]; 100% in assay [4]; 100% in assay [6]; 100% in [7]; 100% in assay [8]. Moreover, the kinase still bound, per cent of control in assay [9] worked out at 14%; in [10], 100%.
For `CCN1CCN(Cc2ccc(NC(=O)c3ccc(C)c(/C=C/c4cnc5[nH]ccc5c4OC)c3)cc2C(F)(F)F)CC1`, the kinase still bound, per cent of control in assay [2] amounted to 0%; in assay [3], 0%; in [11] it was 79%; in assay [4], 2.6%; in assay [5], 77%; in assay [6], 0.25%. Also, the kinase still bound, per cent of control in [7] was determined as 0%; in assay [8], 0%; in [9] it was 0.15%; in assay [10] it was 0%; in [12], 9.9%; in assay [13], 50%.
In the case of `O=C1Nc2ccc(I)cc2/C1=C/c1cc(Br)c(O)c(Br)c1`, the kinase still bound, per cent of control in assay [2] turned out to be 100%; in assay [3], 6.6%; in assay [11], 72%; in assay [4], 5.7%; in assay [5], 98%; in assay [6] it was 81%. Moreover, the kinase still bound, per cent of control in [7] was 50%; in assay [8] it was 35%; in assay [9], 40%; in assay [10], 100%; in [12], 65%; in assay [13], 100%.
Consider `CCOc1cc(N2CCC(O)CC2)ccc1Nc1ncc2c(n1)N(C)c1ccccc1C(=O)N2C`, for which the kinase still bound, per cent of control in [1], in [2], in assay [3], in assay [11], in assay [4] and in assay [5] was 100% each time. Further, the kinase still bound, per cent of control in assay [6], in [7], in [8], in assay [9] and in assay [10] was 100% throughout.
On to `C[C@@H](Oc1cc(-n2cnc3ccc(CN4CCN(C)CC4)cc32)sc1C(N)=O)c1ccccc1C(F)(F)F`, for which the kinase still bound, per cent of control in assay [2] is 100%; in assay [3] it was 54%; in assay [11] it was 98%; in assay [4], 100%; in assay [5] it was 78%; in assay [6] it was 69%. For the same compound, the kinase still bound, per cent of control was found to be 100% in assay [7]; 100% in assay [8]; 10% in assay [9]; 100% in assay [10]; 54% in [12]; 20% in [13].

The values are drawn from the kinase profiling compilation of Christmann-Franck et al. (2016).
